Values quoted from earlier work, collected in US9968629B2, “Product and method for supporting uridine homeostasis” (N.V. Nutricia, priority 2012, dated 2018).

time after which all administered uridine has been used or is catabolised (FIG. 3 in WO 2007/089703, plasma uridine levels): 6 to 8 h
half time in the plasma (plasma): 3 to 4 h
SMILES: O=c1ccn([C@@H]2O[C@H](CO)[C@@H](O)[C@H]2O)c(=O)[nH]1 [uridine]
toxic side effects (high doses of uridine): phlebitis, pyrogenic reactions and diarrhea
